Literature values, collected in patent publication US20070218128A1, “Manufacturing of Quick Release Pharmaceutical Compositions of Water Insoluble Drugs and Pharmaceutical Compositions Obtained By the Process of the Invention” (priority 2004, published 2007).
Where two headings read alike, the source gives them in different places.

How the values were obtained:
[1] = approximate values; for pKa1 / pKa2 / pKa3: Table 1 amino acids; for pKa: Table 1 alkaline substances, refer to the pKa of the acid
[2] = for solubility in water and in 0.1 N HCl: water and 0.1 N HCl

SMILES: NCCCC[C@H](N)C(=O)O [Lysine]
- pKa1 [1]: pKa1: 2.2
- pKa2 [1]: pKa2: 8.9

SMILES: N[C@@H](Cc1c[nH]cn1)C(=O)O [Histidine]
- pH (10 g/L H2O): pH ≈ 7.7
- pKa1 [1]: pKa1: 1.8
- pKa2 [1]: pKa2: 6.0
- pKa3 [1]: pKa3: 9.0

SMILES: O=C([O-])/C=C\C(=O)[O-].[Na+].[Na+] [Sodium maleate]
- pKa [1]: 6.2

SMILES: CN1C(C(=O)Nc2ccccn2)=C(O)c2sc(Cl)cc2S1(=O)=O [lornoxicam]
- solubility in 0.1 N HCl ([2]; 0.1 N HCl): less than 0.1 % w/v
- solubility at a pH of 0.1 N HCl ([2]; 0.1 N HCl, room temperature): less than 1 mg/100 ml

SMILES: NN [Hydrazine]
- pKa [1]: 8

SMILES: COc1ccc2c3c1O[C@H]1[C@@H](O)C=C[C@H]4[C@@H](C2)N(C)CC[C@@]341 [Codeine, reference compound]
- pH in saturated solution (saturated solution): solution ≈ 9.8)

SMILES: O=C([O-])[O-].[Na+].[Na+] [Di-sodium carbonate]
- pKa [1]: 10.3

SMILES: O=C([O-])/C=C/C(=O)[O-].[Na+].[Na+] [Sodium fumerate]
- pKa [1]: 4.4

SMILES: N=C(N)NCCC[C@H](N)C(=O)O [Arginine]
- pH (100 g/L H2O): pH ≈ 11.4
- pKa1 [1]: pKa1: 2.2
- pKa2 [1]: pKa2: 9.1
- pKa3 [1]: pKa3: 13.2

SMILES: COc1ccc2c(c1)c(CC(=O)O)c(C)n2C(=O)c1ccc(Cl)cc1 [indometacin]
- solubility in water and in 0.1 N HCl ([2]; room temperature): practically insoluble

SMILES: CC(=O)Oc1ccccc1C(=O)O [acetylsalicylic acid]
- solubility in water and in 0.1 N HCl ([2]; room temperature): practically insoluble
